DBAASP
Converted amounts (≈) assume the structure as drawn. “And” between values parts separate entries of the source, which are not always exact repeats. Equal values may be shown once.

Assays:
Test in all cases: ≥ marks a high value that may be exact or a test limit, other limits are often not marked, values filed in µg/mL are converted to µM
[1] = tested on: Escherichia coli NCTC 10418
[2] = tested on: Staphylococcus aureus NCTC 10788
[3] = tested on: Pseudomonas aeruginosa ATCC 27853
[4] = tested on: Candida albicans NCYC 1467
[5] = tested on: Staphylococcus aureus ATCC 12493
[6] = tested on: Candida albicans NCPF 1467
[7] = tested on: Fusarium oxysporum f.sp. vasinfectum
[8] = tested on: Escherichia coli ATCC 25922
Fusarium solani = tested on: Fusarium solani
[9] = tested on: Xanthomonas campestris pv. citri
[10] = tested on: Bacillus cereus ATCC 14579
Trichoderma asperellum = tested on: Trichoderma asperellum
[11] = tested on: Staphylococcus aureus ATCC 25923
Ramulariopsis gossypii = tested on: Ramulariopsis gossypii
[12] = tested on: Cryptococcus neoformans ATCC 28957
[13] = tested on: Bacillus subtilis ATCC 23857
[14] = tested on: Pectobacterium carotovorum
[15] = tested on: Pseudomonas syringae pv. tabaci
Fusarium oxysporum = tested on: Fusarium oxysporum
[16] = tested on: Candida albicans ATCC 90028
[17] = tested on: Staphylococcus epidermidis ATCC 12228
[18] = tested on: Salmonella enterica subsp. enterica serovar Pullorum C79-13
[19] = tested on: Staphylococcus aureus ATCC 29213
[20] = tested on: Enterococcus faecalis ATCC 29212
[21] = tested on: Bacillus subtilis CMCC 63501
Escherichia coli UB1005 = tested on: Escherichia coli UB1005
[22] = tested on: Salmonella typhimurium ATCC 7731
[23] = tested on: Staphylococcus aureus ATCC 43300
[24] = tested on: Candida krusei CGMCC 2.1857
[25] = tested on: Candida albicans CGMCC 2.2086
[26] = tested on: Salmonella enterica subsp. enterica serovar Typhimurium ATCC 14028
Candida albicans = tested on: Candida albicans
[27] = tested on: Candida parapsilosis CGMCC 2.3989
Escherichia coli 1005 = tested on: Escherichia coli 1005
[28] = tested on: Candida tropicalis CGMCC 2.1975
[29] = tested on: Salmonella enterica subsp. enterica serovar Pullorum ATCC 7913
Escherichia coli D21 = tested on: Escherichia coli D21
Escherichia coli ML-35 = tested on: Escherichia coli ML-35
[30] = tested on: Serratia marcescens ATCC 8100
Bacillus megaterium Bm11 = tested on: Bacillus megaterium Bm11
[31] = tested on: Escherichia coli K12 MG1655

CC[C@H](C)[C@@H]1NC(=O)[C@H](CO)NC(=O)[C@H](CCCCN)NC(=O)[C@H]([C@@H](C)O)NC(=O)[C@H](Cc2c[nH]c3ccccc23)NC(=O)[C@@H](NC(=O)CNC(=O)[C@H](CCCN=C(N)N)NC(=O)[C@H](CC(C)C)NC(=O)[C@H](C)N)CSSC[C@@H](C(=O)N[C@@H](CCCCN)C(N)=O)NC(=O)[C@@H]2CCCN2C(=O)[C@H](CCCCN)NC(=O)[C@@H]2CCCN2C(=O)[C@@H]2CCCN2C1=O [ALRGCWTKSIPPKPCK] was tested, and the MIC [1] was ≥ 512 µM, the MIC [2] was ≥ 512 µM and the MIC [3] was > 512 µM. For the same compound, the MIC [4] was ≥ 512 µM and the MIC [5] was ≥ 512 µM.
Work on CC[C@H](C)[C@H](NC(=O)CN)C(=O)NCC(=O)NCC(=O)N[C@@H](C)C(=O)N[C@@H](CC(C)C)C(=O)N[C@@H](CC(C)C)C(=O)N[C@@H](CO)C(=O)N[C@@H](Cc1ccccc1)C(=O)NCC(=O)N[C@@H](CCCCN)C(=O)N[C@@H](CO)C(=O)N[C@@H](C)C(=O)N[C@@H](CC(C)C)C(=O)N[C@@H](CCCCN)C(=O)NCC(=O)N[C@@H](CC(C)C)C(=O)N[C@@H](C)C(=O)N[C@@H](CCCCN)C(=O)NCC(=O)N[C@@H](CC(C)C)C(=O)N[C@@H](C)C(=O)N[C@@H](CCC(=O)O)C(=O)N[C@@H](Cc1cnc[nH]1)C(=O)N[C@@H](Cc1ccccc1)C(N)=O [GIGGALLSFGKSALKGLAKGLAEHF] yielded an MIC [1] of 6.55 µM (≈ 16 µg/mL), an MIC [2] of 1.64 µM (≈ 4 µg/mL) and an MIC [3] of 26.2 µM (≈ 64 µg/mL). It also gave an MIC [6] of 1.64 µM (≈ 4 µg/mL) and an MIC [5] of 6.55 µM (≈ 16 µg/mL).
CSCC[C@H](NC(=O)[C@H](Cc1ccccc1)NC(=O)CNC(=O)[C@H](Cc1cnc[nH]1)NC(=O)[C@H](CC(C)C)NC(=O)[C@H](CO)NC(=O)CN)C(=O)N[C@@H](Cc1ccc(O)cc1)C(=O)N[C@@H](CCCN=C(N)N)C(=O)N[C@@H](Cc1ccc(O)cc1)C(=O)N[C@@H](CC(C)C)C(=O)N[C@@H](CCCCN)C(=O)N[C@@H](CC(N)=O)C(=O)N[C@@H](CCSC)C(=O)N[C@H](C(=O)N[C@@H](CC(C)C)C(=O)N[C@@H](CC(N)=O)C(=O)N[C@@H](CC(C)C)C(=O)N[C@@H](Cc1ccccc1)C(N)=O)C(C)C [GSLHGFMYRYLKNMVLNLF] showed an MIC [7] of 8 µM (≈ 18.4 µg/mL), an MIC [8] of 32 µM (≈ 73.7 µg/mL) and an MIC (Fusarium solani) of 16 µM (≈ 36.8 µg/mL). For the same compound, the MIC [3] was 32 µM (≈ 73.7 µg/mL), the MIC [9] was ≥ 64 µM and the MIC [10] was ≥ 64 µM. For the same compound, the MIC (Trichoderma asperellum) was ≥ 32 µM, the MIC [11] was 4 µM (≈ 9.21 µg/mL) and the MIC (Ramulariopsis gossypii) was 4 µM (≈ 9.21 µg/mL). The MIC [12] was 8 µM (≈ 18.4 µg/mL), the MIC [13] was 8 µM (≈ 18.4 µg/mL) and the MIC [14] was ≥ 128 µM. The MIC [15] was 16 µM (≈ 36.8 µg/mL), the MIC (Fusarium oxysporum) was ≥ 32 µM and the MIC [16] was 2.67 µM (≈ 6.15 µg/mL).
CC[C@H](C)[C@H](N)C(=O)N[C@@H](Cc1cnc[nH]1)C(=O)N[C@@H](CCCCN)C(=O)N[C@@H](Cc1ccccc1)C(=O)N[C@@H](Cc1c[nH]c2ccccc12)C(=O)N[C@@H](CCCN=C(N)N)C(=O)NCC(=O)NCC(=O)N[C@@H](CCCN=C(N)N)C(=O)N[C@@H](Cc1c[nH]c2ccccc12)C(=O)N[C@@H](Cc1ccccc1)C(=O)N[C@@H](CCCCN)C(=O)N[C@@H](Cc1cnc[nH]1)C(=O)N[C@H](C(N)=O)[C@@H](C)CC [IHKFWRGGRWFKHI] showed an MIC [17] of 32 µM (≈ 59.8 µg/mL), an MIC [8] of 8 µM (≈ 14.9 µg/mL) and an MIC [18] of 8 µM (≈ 14.9 µg/mL). For the same compound, the MIC [19] was 16 µM (≈ 29.9 µg/mL), the MIC [20] was 32 µM (≈ 59.8 µg/mL) and the MIC [3] was 16 µM (≈ 29.9 µg/mL). For the same compound, the MIC [21] was 16 µM (≈ 29.9 µg/mL), the MIC (Escherichia coli UB1005) was 8 µM (≈ 14.9 µg/mL) and the MIC [22] was ≥ 64 µM. The MIC [23] was 32 µM (≈ 59.8 µg/mL).
With CC[C@H](C)[C@H](N)C(=O)N[C@H](C(=O)N[C@@H](CCCN=C(N)N)C(=O)N[C@@H](CCCN=C(N)N)C(=O)N[C@H](C(=O)N[C@@H](CCCN=C(N)N)C(=O)N[C@@H](CCCN=C(N)N)C(=O)N[C@H](C(=O)N[C@H](C(N)=O)[C@@H](C)CC)[C@@H](C)CC)[C@@H](C)CC)[C@@H](C)CC [IIRRIRRII] the MIC [17] was 64 µM (≈ 77.3 µg/mL), the MIC [24] was 16 µM (≈ 19.3 µg/mL) and the MIC [8] was 32 µM and 64 µM. For the same compound, the MIC [25] was ≥ 64 µM, the MIC [19] was 64 µM (≈ 77.3 µg/mL) and the MIC [26] was 64 µM (≈ 77.3 µg/mL). For the same compound, the MIC (Candida albicans) was > 64 µM, the MIC [11] was > 64 µM and the MIC [27] was ≥ 64 µM. For the same compound, the MIC (Escherichia coli 1005) was 16 µM (≈ 19.3 µg/mL), the MIC [28] was 4 µM (≈ 4.83 µg/mL) and the MIC [23] was 64 µM (≈ 77.3 µg/mL). The MIC [29] was ≥ 32 µM.
In the case of CC(C)C[C@H](NC(=O)[C@H](Cc1ccc(O)cc1)NC(=O)[C@@H]1CCCN1C(=O)[C@@H]1CCCN1C(=O)[C@H](CCCN=C(N)N)NC(=O)[C@@H]1CCCN1C(=O)[C@H](CCCCN)NC(=O)[C@H](CCCCN)NC(=O)[C@@H](N)CCCCN)C(=O)N1CCC[C@H]1C(=O)N[C@@H](CCCN=C(N)N)C(=O)N1CCC[C@H]1C(=O)N[C@@H](CCCN=C(N)N)C(=O)N1CCC[C@H]1C(=O)N1CCC[C@H]1C(=O)O [KKKPRPPYLPRPRPP], the MIC [17] is reported as > 64 µM, the MIC (Escherichia coli D21) is reported as 1 µM (≈ 1.83 µg/mL) and the MIC [26] is reported as 0.5 µM (≈ 0.914 µg/mL). The MIC (Escherichia coli ML-35) was 2 µM (≈ 3.65 µg/mL), the MIC [30] was 8 µM (≈ 14.6 µg/mL) and the MIC (Bacillus megaterium Bm11) was 16 µM (≈ 29.2 µg/mL).
NC(=O)[C@H](CCCN=C(N)N)NC(=O)[C@H](Cc1c[nH]c2ccccc12)NC(=O)[C@H](Cc1c[nH]c2ccccc12)NC(=O)[C@H](CCCN=C(N)N)NC(=O)[C@H](CCCN=C(N)N)NC(=O)[C@H](Cc1c[nH]c2ccccc12)NC(=O)[C@H](CCCN=C(N)N)NC(=O)[C@H](CCCN=C(N)N)NC(=O)[C@H](Cc1c[nH]c2ccccc12)NC(=O)[C@H](Cc1c[nH]c2ccccc12)NC(=O)[C@@H](N)CCCN=C(N)N [RWWRRWRRWWR] gave an MIC [17] of 4 µM (≈ 7.54 µg/mL), an MIC [24] of 2 µM (≈ 3.77 µg/mL) and an MIC [19] of 4 µM (≈ 7.54 µg/mL). For the same compound, the MIC [26] was 8 µM (≈ 15.1 µg/mL), the MIC (Candida albicans) was 4 µM (≈ 7.54 µg/mL) and the MIC [11] was 8 µM (≈ 15.1 µg/mL). It also gave an MIC [27] of 16 µM (≈ 30.2 µg/mL), an MIC (Escherichia coli 1005) of 8 µM (≈ 15.1 µg/mL) and an MIC [28] of 2 µM (≈ 3.77 µg/mL). The MIC [23] was 4 µM (≈ 7.54 µg/mL) and the MIC [29] was 4 µM (≈ 7.54 µg/mL).
In the case of CC(C)C[C@H](NC(=O)[C@H](Cc1ccccc1)NC(=O)[C@H](CCCCN)NC(=O)[C@@H](N)CO)C(=O)N[C@@H](CO)C(=O)N[C@@H](CCCCN)C(=O)N[C@@H](CCCCN)C(=O)N1CCC[C@H]1C(=O)N[C@@H](CCCCN)C(=O)N[C@@H](CCCCN)C(=O)N[C@@H](CC(C)C)C(=O)N[C@@H](Cc1ccccc1)C(=O)N[C@@H](Cc1c[nH]c2ccccc12)C(=O)N[C@@H](Cc1ccccc1)C(=O)N[C@@H](CCCN=C(N)N)C(=O)N[C@@H](C)C(=O)O [SKFLSKKPKKLFWFRA], the MIC [31] is reported as ≥ 63.6 µM.
